Laboratory results as given in PMC4768256, “Using mutagenesis to explore conserved residues in the RNA-binding groove of influenza A virus nucleoprotein for antiviral drug development” (Scientific Reports, 2016).

Molecular target: T1, NP (nucleoprotein of influenza A virus H1N1, full-length wild type) (Influenza A virus (A/Nanchang/11/1996(H1N1)), UniProt Q07FI1)
T1 construct: full-length (498 aa), N-terminal 6xHis-tag as printed, pET21b NdeI/XhoI, E. coli, Ni-NTA, RNase-treated lysate
Type: binding

T1 sequence (Q07FI1 whole entry): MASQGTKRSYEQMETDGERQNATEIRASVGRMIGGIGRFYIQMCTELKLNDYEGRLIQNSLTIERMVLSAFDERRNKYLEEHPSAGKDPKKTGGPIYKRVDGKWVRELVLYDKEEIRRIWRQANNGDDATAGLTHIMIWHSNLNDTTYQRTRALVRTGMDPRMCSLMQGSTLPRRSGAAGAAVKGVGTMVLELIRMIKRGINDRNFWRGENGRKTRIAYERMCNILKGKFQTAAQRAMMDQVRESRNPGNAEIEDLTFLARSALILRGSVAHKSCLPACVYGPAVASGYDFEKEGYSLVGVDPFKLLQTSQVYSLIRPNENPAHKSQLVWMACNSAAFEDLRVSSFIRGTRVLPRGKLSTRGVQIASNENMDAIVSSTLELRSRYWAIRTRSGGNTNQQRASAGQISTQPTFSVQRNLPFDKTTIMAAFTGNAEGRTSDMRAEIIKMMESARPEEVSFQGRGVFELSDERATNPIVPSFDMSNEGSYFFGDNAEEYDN

`COc1cc(/C=C/C(=O)CC(=O)/C=C/c2ccc(O)c(OC)c2)ccc1O` [H7, (E,E)-1,7-bis(4-hydroxy-3-methoxyphenyl)-1,6-heptadiene-3,5-dione] gave a Kd of 1220 nM.
